These results are taken from PMC6629613, “Selective and competitive inhibition of kynurenine aminotransferase 2 by glycyrrhizic acid and its analogues” (Scientific Reports, 2019).

Where two headings read alike, the source gives them in different places.

Series [1] deals with T1, human KAT2 (Homo sapiens, UniProt Q8N5Z0).
T1 construct: made in house; host or cells: insect Sf9 cells (baculovirus)
Briefly: Human KAT2 enzyme inhibition, microplate fluorescence assay of KYNA. Type of series: biochemical. On the procedure: High-throughput screening assays for inhibitors of human KAT2 were conducted using a microplate fluorescence assay for kynurenine aminotransferase[26] with minor modifications. In these assays, KAT2 enzyme activities were measured in black 384-well untreated plates. The human KAT2 reaction mixture (20 μL) contained 10 ng/μL recombinant human KAT2, 1 mM L-KYN, 1 mM α-ketoglutaric acid, […], 0.005% Tween 20 and 150 mM AMP buffer (pH 9.5), and was added to 384-well plates containing compounds using a Multidrop dispenser (Thermo Fisher Scientific, USA). The compound library comprised about 13,000 compounds from the Drug Discovery Initiative at the University of Tokyo. The compound library includes about 9,600 diverse compounds for pilot screening and about 3,400 known bioactive compounds. All compounds were dissolved and diluted in DMSO to a final concentration of 10 μM. Reaction mixtures were incubated for 2 h at room temperature, and 20 μL aliquots of 300 mM zinc acetate (pH 5.5) were then added directly using a Multidrop dispenser. Fluorescence intensities of KYNA were measured using an ARVO X Multi Label Reader (PerkinElmer, USA) at an excitation wavelength of 340 nm and an emission wavelength of 460 nm. Assay quality was validated by calculating signal–background and Z’ factor. These assays identified approximately 20 candidate KAT2 inhibitors with potent inhibitory activity from about 13,000 compounds. Candidate compounds were validated in quadruplicate KAT2 enzyme activity assays.
Inhibitory activities of the identified compounds against KAT1 and KAT2 were measured using the enzyme activity assays described above. KAT1 reaction mixtures (20 μL) contained 10 ng/μL recombinant human KAT1, 1 mM L-KYN, 1 mM sodium pyruvate, 100 μM PLP, 0.005% Tween 20 and inhibitors at various concentrations in 150 mM 2-amino-2-methyl-1-propanol (AMP) buffer (pH 7.4 or 9.5). […] Following the addition of 20 μL aliquots of 300 mM zinc acetate, fluorescence intensities of KYNA were measured using an ARVO X Multi Label Reader (PerkinElmer, USA).
(§1) To determine steady state kinetic parameters for the substrate L-KYN, 50 μL reaction mixtures containing 10 ng/μL recombinant human KAT2, 1 mM α-KG, 100 μM PLP, 0.005% Tween 20, L-KYN at concentrations of 10, 5, 2.5, 1.25, 0.62, 0.31 and 0.15 mM and GL, GA or CBX or PF-04859989 at 4.5, 6.0 and 3.5 μM and 300 nM, respectively. Following incubation for 30 min at 37 °C, reactions were stopped by adding 3% perchloric acid at a 1:1 ratio. KYNA concentrations were measured using the same HPLC method as described above. Double reciprocal plots were used to determine types of inhibition. Competitive inhibition constants (Ki) for GL, GA and CBX were calculated using the global fit formula (GraphPad Prism v6.07)[60],[61] as follows: v=Vmax∗[S]/(Kmobs+[S])andKmobs=Km×(1+[I]/Ki), where v = initial velocity, Vmax = maximum velocity, [S] = substrate concentration, Km = Michaelis–Menten constant and [I] = inhibitor concentration. The Ki value of PF-04859989 was calculated using the global fit formula as follows: Vmaxinh=Vmax/(1+[I]/Ki)andKmobs=Vmaxinh×[S]/(Km+[S]), where Vmaxinh = maximum enzyme velocity for the concentration of inhibitor. IC50 values were determined by nonlinear curve fitting using GraphPad Prism v6.07. All statistical analyses were performed using GraphPad Prism v6.07.

Another series addresses T2, mouse KAT2 (Mus musculus, UniProt Q9WVM8).
T2 construct: made in house; host or cells: insect Sf9 cells (baculovirus)
Description: Mouse KAT2 enzyme inhibition, microplate fluorescence assay of KYNA. Type of series: biochemical. The conditions noted are these: recombinant mouse KAT2, 1 mM L-KYN, AMP buffer pH 9.5; mean ± SEM. On the procedure:
(§2) Inhibitory activities of the identified compounds against KAT1 and KAT2 were measured using the enzyme activity assays described above. KAT1 reaction mixtures (20 μL) contained 10 ng/μL recombinant human KAT1, 1 mM L-KYN, 1 mM sodium pyruvate, 100 μM PLP, 0.005% Tween 20 and inhibitors at various concentrations in 150 mM 2-amino-2-methyl-1-propanol (AMP) buffer (pH 7.4 or 9.5). Human and mouse KAT2 reaction mixtures (20 μL) contained 10 ng/μL recombinant human or mouse KAT2, 1 mM L-KYN, 1 mM α-ketoglutaric acid, 100 μM PLP, 0.005% Tween 20 and inhibitors at various concentrations in 150 mM AMP buffer (pH 9.5). Following the addition of 20 μL aliquots of 300 mM zinc acetate, fluorescence intensities of KYNA were measured using an ARVO X Multi Label Reader (PerkinElmer, USA).
as §1

In the next series the target is T3, human KAT1 (Homo sapiens, UniProt Q16773).
T3 construct: made in house; host or cells: insect Sf9 cells (baculovirus)
T3 sequence (Q16773 1-422): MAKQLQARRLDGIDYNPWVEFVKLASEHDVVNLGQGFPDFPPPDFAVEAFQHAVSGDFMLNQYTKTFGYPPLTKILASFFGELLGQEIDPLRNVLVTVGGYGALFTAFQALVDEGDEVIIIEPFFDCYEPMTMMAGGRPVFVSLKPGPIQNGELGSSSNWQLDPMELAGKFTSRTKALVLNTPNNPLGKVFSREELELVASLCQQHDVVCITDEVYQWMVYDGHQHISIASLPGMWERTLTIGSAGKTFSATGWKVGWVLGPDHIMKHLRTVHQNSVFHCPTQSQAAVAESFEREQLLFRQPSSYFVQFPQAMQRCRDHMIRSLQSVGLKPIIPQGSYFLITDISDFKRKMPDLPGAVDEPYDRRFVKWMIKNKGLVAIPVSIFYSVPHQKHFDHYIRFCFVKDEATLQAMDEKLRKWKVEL
Briefly: Human KAT1 enzyme inhibition, microplate fluorescence assay of KYNA. The note with it: recombinant human KAT1, 1 mM L-KYN, 1 mM sodium pyruvate. Type of series: biochemical. As for the experimental part: as §2, §1

A further series deals with T4, human KAT4 (Homo sapiens, UniProt P00505).
T4 construct: made in house; host or cells: insect Sf9 cells (baculovirus)
T4 sequence (P00505 30-430): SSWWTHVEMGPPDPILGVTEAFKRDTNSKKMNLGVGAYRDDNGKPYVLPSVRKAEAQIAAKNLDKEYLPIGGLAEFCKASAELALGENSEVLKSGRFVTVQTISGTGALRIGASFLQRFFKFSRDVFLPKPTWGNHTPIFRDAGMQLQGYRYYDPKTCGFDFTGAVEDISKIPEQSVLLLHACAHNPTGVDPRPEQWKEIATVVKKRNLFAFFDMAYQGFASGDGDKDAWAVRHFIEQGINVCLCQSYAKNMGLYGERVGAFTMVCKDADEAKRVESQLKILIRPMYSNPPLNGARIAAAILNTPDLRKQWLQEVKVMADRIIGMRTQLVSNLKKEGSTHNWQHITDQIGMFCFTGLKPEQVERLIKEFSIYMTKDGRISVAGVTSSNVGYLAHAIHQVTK
Description: Human KAT4 enzyme inhibition, HPLC analysis of KYNA. Format: biochemical. The conditions noted are these: recombinant human KAT4, 1 mM L-KYN, Tris buffer pH 7.5, HPLC. As for the experimental part: (§3) KAT3 and KAT4 enzyme activities were measured using high performance liquid chromatography (HPLC) analyses of reaction products. Briefly, KAT3 reaction mixtures (50 μL) contained 10 ng/μL recombinant human KAT3, 1 mM L-KYN, 1 mM sodium pyruvate, 100 μM PLP, 0.005% Tween 20 and inhibitors at various concentrations in 150 mM AMP buffer (pH 9.5). KAT4 reaction mixtures (50 μL) contained recombinant human KAT4, 1 mM L-KYN, 1 mM α-ketoglutaric acid, 100 μM PLP, 0.005% Tween 20 and inhibitors at various concentrations in 100 mM Tris buffer (pH 7.5). Reaction mixtures were incubated for 1 h at 37 °C and reactions were then stopped by adding 3% perchloric acid at a ratio of 1:1. KYNA contents of reaction mixtures were then determined using HPLC (Shimadzu, Kyoto, Japan) following isocratic elution from a reverse-phase column (TSKgel ODS-100V, 3 μm, 4.6 mm [ID] × 150 mm [L]; Tosoh, Tokyo, Japan) using a mobile phase containing 10 mM sodium acetate with 2% acetonitrile (pH adjusted to 4.5) at flow rate of 0.8 mL/min. KYNA was detected using a fluorescence detector (RF-20Axs) at an excitation wavelength of 344 nm and an emission wavelength of 380 nm.
as §1, with “Double reciprocal plots were used to determine types of inhibition.” left out, “The Ki value of PF-04859989 was calculated using the global fit formula as follows: Vmaxinh=Vmax/(1+[I]/Ki)andKmobs=Vmaxinh×[S]/(Km+[S]), where Vmaxinh = maximum enzyme velocity for the concentration of inhibitor.” left out, “All statistical analyses were performed using GraphPad Prism v6.07.” left out

Series [2] concerns the target T1, human KAT2. Briefly: Human KAT2 inhibition kinetics with varying KYN (Lineweaver-Burk, global fit), HPLC. Type of series: biochemical. The note with it: for Ki: global fit formula, mean ± SEM, read-out: Ki (inhibition constant); for type of inhibition: inhibitor close to its IC50, Lineweaver-Burk. As for the experimental part: as §1
Series [3] addresses T1, human KAT2. More on the design: method as in PMID 18537204, PMID 27367665. The conditions noted are these: read-out: reported IC50; cited from earlier work.
The target in another series is T5, human KAT3 (Homo sapiens, UniProt Q6YP21).
T5 construct: purchased OriGene Technologies, Inc
Briefly: Human KAT3 enzyme inhibition, HPLC analysis of KYNA. Type of series: biochemical. The note with it: recombinant human KAT3, 1 mM L-KYN, AMP buffer pH 9.5, HPLC; mean ± SEM. On the procedure:
as §3, with “nm. […]” for “nm.”

For series [4] the following is noted: cited from earlier work.
Where [5] appears, read: human KAT2 at physiological conditions (pH 7.4).
The mark [6] stands for this setting: recombinant human KAT2, 1 mM L-KYN, AMP buffer pH 9.5, mean ± SEM, three experiments.

T2 sequence (Q9WVM8 30-425): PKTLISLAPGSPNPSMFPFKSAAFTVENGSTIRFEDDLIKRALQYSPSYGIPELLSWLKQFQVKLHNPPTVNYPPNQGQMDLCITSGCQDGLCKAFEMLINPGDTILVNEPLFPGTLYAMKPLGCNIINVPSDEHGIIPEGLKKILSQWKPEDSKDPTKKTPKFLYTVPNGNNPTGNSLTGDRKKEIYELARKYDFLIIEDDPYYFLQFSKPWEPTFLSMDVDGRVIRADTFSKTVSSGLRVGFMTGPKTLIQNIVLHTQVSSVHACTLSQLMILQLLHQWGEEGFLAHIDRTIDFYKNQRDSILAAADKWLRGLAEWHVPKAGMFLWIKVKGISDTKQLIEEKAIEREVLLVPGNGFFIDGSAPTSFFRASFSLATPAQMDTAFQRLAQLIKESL
T1 sequence (Q8N5Z0 30-425): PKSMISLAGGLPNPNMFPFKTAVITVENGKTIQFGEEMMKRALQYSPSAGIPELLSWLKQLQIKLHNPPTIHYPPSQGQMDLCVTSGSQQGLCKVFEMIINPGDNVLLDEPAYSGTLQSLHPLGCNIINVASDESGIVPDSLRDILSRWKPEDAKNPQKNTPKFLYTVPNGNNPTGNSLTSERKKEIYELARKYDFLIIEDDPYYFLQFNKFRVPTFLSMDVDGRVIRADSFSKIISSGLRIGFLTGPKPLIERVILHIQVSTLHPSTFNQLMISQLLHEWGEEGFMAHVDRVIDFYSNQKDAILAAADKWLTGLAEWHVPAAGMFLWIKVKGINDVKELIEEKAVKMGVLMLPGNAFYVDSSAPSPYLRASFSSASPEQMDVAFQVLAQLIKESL
T5 sequence (Q6YP21 whole entry): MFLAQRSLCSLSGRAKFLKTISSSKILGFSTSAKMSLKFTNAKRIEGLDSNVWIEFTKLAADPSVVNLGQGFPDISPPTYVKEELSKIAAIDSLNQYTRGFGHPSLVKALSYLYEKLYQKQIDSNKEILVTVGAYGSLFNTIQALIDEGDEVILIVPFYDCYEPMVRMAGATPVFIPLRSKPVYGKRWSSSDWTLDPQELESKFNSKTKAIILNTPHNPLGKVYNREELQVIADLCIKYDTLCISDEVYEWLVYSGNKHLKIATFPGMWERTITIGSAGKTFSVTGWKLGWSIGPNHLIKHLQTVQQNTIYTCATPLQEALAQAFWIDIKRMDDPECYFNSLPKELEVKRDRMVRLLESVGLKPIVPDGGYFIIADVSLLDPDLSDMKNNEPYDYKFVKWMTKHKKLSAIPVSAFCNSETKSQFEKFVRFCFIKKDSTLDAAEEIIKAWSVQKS

Turning to `CC1(C)[C@@H](O)CC[C@]2(C)[C@H]3C(=O)C=C4[C@@H]5C[C@@](C)(C(=O)O)CC[C@]5(C)CC[C@@]4(C)[C@]3(C)CC[C@@H]12` [GA, glycyrrhetinic acid], the IC50 was 9.87 ± 0.32 µM against human KAT2 [1] (setting [5]); 6.96 ± 0.37 µM at human KAT2 [1] (setting [6]); 56.8 ± 1.45 µM on mouse KAT2; greater than 500 µM on human KAT1; greater than 500 µM at human KAT4. For the same molecule, the Ki at human KAT2 [2] was found to be 6.92 ± 0.6 µM. In addition, the type of inhibition entry at human KAT2 [2] is recorded as “competitive inhibitors of KYN”.

In the case of “(S)-4-(ethylsulfonyl)benzoylalanine [S-ESBA]”, the IC50 at human KAT2 [3] was roughly 1000 µM.

For the molecule `CC1(C)[C@@H](OC(=O)CCC(=O)O)CC[C@]2(C)[C@H]3C(=O)C=C4[C@@H]5C[C@@](C)(C(=O)O)CC[C@]5(C)CC[C@@]4(C)[C@]3(C)CC[C@@H]12` [CBX, carbenoxolone], the half-inhibitory concentration (IC50) against human KAT2 [1] (setting [5]) was 3.34 ± 0.25 µM; at human KAT2 [1] (setting [6]) it was 3.9 ± 0.37 µM; at mouse KAT2, 19.8 ± 0.34 µM; at human KAT1, greater than 500 µM; on human KAT3, greater than 500 µM; on human KAT4, greater than 500 µM. Further, the Ki at human KAT2 [2] was determined as 4.11 ± 0.37 µM. For the same molecule, on human KAT2 [2], the type of inhibition result is “competitive inhibitors of KYN”. The “passage through the BBB” value in series [4] is “failed to pass through the BBB”.

Regarding `CC1(C)[C@@H](O[C@H]2O[C@H](C(=O)O)[C@@H](O)[C@H](O)[C@H]2O[C@@H]2O[C@H](C(=O)O)[C@@H](O)[C@H](O)[C@H]2O)CC[C@]2(C)[C@H]3C(=O)C=C4[C@@H]5C[C@@](C)(C(=O)O)CC[C@]5(C)CC[C@@]4(C)[C@]3(C)CC[C@@H]12` [GL, glycyrrhizic acid], the IC50 against human KAT2 [1] (setting [5]) was 7.93 ± 0.17 µM; at human KAT2 [1] (setting [6]) it was 4.51 ± 0.2 µM; at mouse KAT2 it was 86.2 ± 1.94 µM; on human KAT1, greater than 500 µM; at human KAT3 it was greater than 500 µM; on human KAT4, greater than 500 µM. In addition, the inhibitory constant (Ki) at human KAT2 [2] amounted to 10.4 ± 1.62 µM. Moreover, at human KAT2 [2], the type of inhibition entry is given as “competitive inhibitors of KYN”.

Consider `N[C@H]1Cc2ccccc2N(O)C1=O` [PF-04859989], for which half-maximal inhibition against human KAT2 [1] (KAT2, as determined in our assays) (IC50) was put at 0.3 µM. Besides, on human KAT2 [2], the Ki came to 0.22 ± 0.01 µM and the type of inhibition entry is “maximum reaction rates (Vmax) varied but the Michaelis–Menten constant (Km) did not change”.

As for `O=C(O)C(Cc1ccccc1)N1C(=O)c2cc(Cl)c(Cl)cc2C1=O` (centres unmarked) [NS-1502], on human KAT2 [3], the IC50 is 315 µM.

The IC50 is the concentration that inhibits the measured activity by half. A word on the Ki: it is the dissociation constant of the complex between target and ligand, obtained from inhibition or displacement.
